Results from patent publication US4297486A, “Aminoglycoside antibiotic G-367-1 and method for the production thereof” (Toyo Jozo Kabushiki Kaisha, priority 1979, dated 1981).
Values after ≈ are worked out from the molar mass of the structure shown.

How the values were obtained:
[1] = system: Gram negative bacteria; assay: antibacterial effect against Gram negative bacteria; format: cell-based
Text: (§1) The antimicrobial spectrum (minimum inhibitory concentration, MIC) of G-367-1 by agar dilution method is as follows: […]

[2] = Solubility; format: physicochemical
[3] = system: Pseudomonas maltophilia 1850; assay: antimicrobial spectrum, MIC by agar dilution method; format: cell-based; conditions: Stenotrophomonas maltophilia, read-out: minimum inhibitory concentration, MIC
Text: as §1

[4] = system: Citrobacter freundii GN346; assay: as above; format: cell-based; conditions: read-out: minimum inhibitory concentration, MIC
Text: as §1

[5] = system: Escheria coli W3630; assay: as above; format: cell-based; conditions: read-out: minimum inhibitory concentration, MIC
Text: as §1

[6] = system: Pseudomonas aeruginosa ML4561 RP4; assay: as above; format: cell-based; conditions: ML4561RP4, read-out: minimum inhibitory concentration, MIC
Text: as §1

[7] = system: Proteus rettgeri ACR; assay: as above; format: cell-based; conditions: Providencia rettgeri, read-out: minimum inhibitory concentration, MIC
Text: as §1

[8] = system: Salmonella enteritidis Gartner; assay: as above; format: cell-based; conditions: Salmonella enterica, read-out: minimum inhibitory concentration, MIC
Text: as §1

[9] = system: Pseudomonas aeruginosa ML4561; assay: as above; format: cell-based; conditions: read-out: minimum inhibitory concentration, MIC
Text: as §1

[10] = system: Staphylococcus aureus MS 27; assay: as above; format: cell-based; conditions: MS27, read-out: minimum inhibitory concentration, MIC
Text: as §1

[11] = system: Pseudomonas aeruginosa 1946; assay: as above; format: cell-based; conditions: read-out: minimum inhibitory concentration, MIC
Text: as §1

[12] = system: Pseudomonas aeruginosa 2512; assay: as above; format: cell-based; conditions: read-out: minimum inhibitory concentration, MIC
Text: as §1

[13] = system: Bacillus subtilis ATCC 6633; assay: as above; format: cell-based; conditions: ATCC6633, read-out: minimum inhibitory concentration, MIC
Text: as §1

[14] = system: Serratia marcescens; assay: as above; format: cell-based; conditions: read-out: minimum inhibitory concentration, MIC
Text: as §1

[15] = system: Pseudomonas aeruginosa IAM1095; assay: as above; format: cell-based; conditions: read-out: minimum inhibitory concentration, MIC
Text: as §1

[16] = system: Proteus morganii 0239; assay: as above; format: cell-based; conditions: Morganella morganii, read-out: minimum inhibitory concentration, MIC
Text: as §1

[17] = system: Enterobacter aerogenes 0655; assay: as above; format: cell-based; conditions: Klebsiella aerogenes, read-out: minimum inhibitory concentration, MIC
Text: as §1

[18] = system: Streptococcus pyogenes N.Y.5; assay: as above; format: cell-based; conditions: read-out: minimum inhibitory concentration, MIC
Text: as §1

[19] = system: Pseudomonas aeruginosa ML4561 Rms164-1; assay: as above; format: cell-based; conditions: ML4561RMS1641, read-out: minimum inhibitory concentration, MIC
Text: as §1

[20] = system: Klebsiella pneunonia ATCC 10031; assay: as above; format: cell-based; conditions: ATCC10031, read-out: minimum inhibitory concentration, MIC
Text: as §1

[21] = system: Staphylococcus aureus ATCC 6538P; assay: as above; format: cell-based; conditions: ATCC6538P, read-out: minimum inhibitory concentration, MIC
Text: as §1

[22] = system: Staphylococcus aureus 0119; assay: as above; format: cell-based; conditions: read-out: minimum inhibitory concentration, MIC
Text: as §1

[23] = system: Escherichia coli NIHJ-JC2; assay: as above; format: cell-based; conditions: NIHJJC2, read-out: minimum inhibitory concentration, MIC
Text: as §1

[24] = system: Staphylococcus epidermidis sp-al-1; assay: as above; format: cell-based; conditions: SPAL1, read-out: minimum inhibitory concentration, MIC
Text: as §1

[25] = system: Pseudomonas aeruginosa ML4561 Rms166; assay: as above; format: cell-based; conditions: ML4561RMS166, read-out: minimum inhibitory concentration, MIC
Text: as §1

[26] = system: Enterobacter cloacae GN366; assay: as above; format: cell-based; conditions: read-out: minimum inhibitory concentration, MIC
Text: as §1

[27] = system: Pseudomonas putida 1842; assay: as above; format: cell-based; conditions: read-out: minimum inhibitory concentration, MIC
Text: as §1

[28] = system: Shigella sonnei E33; assay: as above; format: cell-based; conditions: read-out: minimum inhibitory concentration, MIC
Text: as §1

CNC1C(O)C(OC2C(N)CC(N)C(OC3OC(CN)=CCC3NC=O)C2O)OCC1(C)O (stereo not drawn) [G-367-1]
antibacterial effect [1]: strong antibacterial effect
Solubility ([2]; acetone): insoluble
Solubility ([2]; benzene): insoluble
Solubility ([2]; chloroform): insoluble
Solubility ([2]; ethyl acetate): insoluble
Solubility ([2]; methanol): soluble
Solubility ([2]; water): soluble
MIC [3]: > 100 µg/mL
MIC [4]: 1.6 µg/mL (≈ 3.36 µM)
MIC [5]: 1.6 µg/mL (≈ 3.36 µM)
MIC [6]: 12.5 µg/mL (≈ 26.3 µM)
MIC [7]: 3.1 µg/mL (≈ 6.52 µM)
MIC [8]: 1.6 µg/mL (≈ 3.36 µM)
MIC [9]: 25 µg/mL (≈ 52.6 µM)
MIC [10]: 6.3 µg/mL (≈ 13.2 µM)
MIC [11]: > 100 µg/mL
MIC [12]: > 100 µg/mL
MIC [13]: 0.8 µg/mL (≈ 1.68 µM)
MIC [14]: 25 µg/mL (≈ 52.6 µM)
MIC [15]: 25 µg/mL (≈ 52.6 µM)
MIC [16]: 3.1 µg/mL (≈ 6.52 µM)
MIC [17]: 1.6 µg/mL (≈ 3.36 µM)
MIC [18]: 6.3 µg/mL (≈ 13.2 µM)
MIC [19]: 50 µg/mL (≈ 105 µM)
MIC [20]: 1.6 µg/mL (≈ 3.36 µM)
MIC [21]: 6.3 µg/mL (≈ 13.2 µM)
MIC [22]: 12.5 µg/mL (≈ 26.3 µM)
MIC [23]: 1.6 µg/mL (≈ 3.36 µM)
MIC [24]: 1.6 µg/mL (≈ 3.36 µM)
MIC [25]: > 100 µg/mL
MIC [26]: 1.6 µg/mL (≈ 3.36 µM)
MIC [27]: > 100 µg/mL
MIC [28]: 1.6 µg/mL (≈ 3.36 µM)
